Assay results as given in patent US4965273A, “Certain 1-tertiary-butyl-naphthyridone carboxylic acid derivatives anti-bacterial agents” (priority 1988, dated 1990).
Values after ≈ are worked out from the molar mass of the structure shown.

Assays:
Streptococcus faecalis = assay: Minimum inhibitory concentration (MIC), microtitration dilution method of Heifetz et al.; type: cell-based
Description: (§1) The compounds of this invention display antibacterial activity when tested by the microtitration dilution method reported by Heifetz et al., Antimicr. Agents & Chemoth., 6. 124 (1974). Minimum inhibitory concentrations (MICs, in μg/ml) for but a few representative compounds according to this invention were determined by the above-mentioned method.

Enterobacter cloacae = assay: as above; type: cell-based; design: unit not given here; conditions: Table 2
Streptococcus faecium = assay: as above; type: cell-based; conditions: Table 2
Description: as §1

Staphylococcus aureus = assay: as above; type: cell-based; conditions: Table 2
Description: as §1

Klebsiella oxytoca = assay: as above; type: cell-based; conditions: Table 2
Description: as §1

Escherichia coli = assay: as above; type: cell-based; conditions: Table 2
Description: as §1

Pseudomonas aeruginosa = assay: as above; type: cell-based; conditions: Table 2
Description: as §1

[1] = from Tables 2, 3 and 4

O=C(O)c1cn(C2CC2)c2cc(N3CCNCC3)c(F)cc2c1=O [Cip., 1-cyclopropyl-6-fluoro-1,4-dihydro-7-(1-piperazinyl)-4-oxo-quinoline-3-carboxylic acid, reference compound]
MIC (Streptococcus faecalis; Enterococcus faecalis, read-out: MIC S. faecal.): 0.5 µg/mL (≈ 1.51 µM)

CC(C)(C)n1cc(C(=O)O)c(=O)c2cc(F)c(N3C[C@@H]4CC[C@H]3CN4)nc21 [Example 23, 7-(1S,4S-2,5-diazabicyclo[2.2.2]octan-2-yl)-1-(1,1-dimethylethyl)-1,4-dihydro-6-fluoro-4-oxo-1,8-naphthyridine-3-carboxylic acid]
MIC E. clo. (Enterobacter cloacae): 0.06
MIC S. faeci. (Streptococcus faecium): 2.0 µg/mL (≈ 5.34 µM)
MIC S. aur. (Staphylococcus aureus): 0.03 µg/mL (≈ 0.0801 µM)
MIC K. oxyto. (Klebsiella oxytoca): 0.5 µg/mL (≈ 1.34 µM)
MIC E. coli (Escherichia coli): 0.13 µg/mL (≈ 0.347 µM)
MIC P. aer. (Pseudomonas aeruginosa): 1.0 µg/mL (≈ 2.67 µM)
MIC S. faecal. (Streptococcus faecalis; Table 2, Streptococcus faecalis): 0.5 µg/mL (≈ 1.34 µM)

CC(C)(C)n1cc(C(=O)O)c(=O)c2cc(F)c(N3C[C@H]4C[C@@H]3CN4)nc21 [Example 30, 7-(1R,4R-2,5-diazabicyclo[2.2.1]heptan-2-yl)-1-(1,1-dimethylethyl)-1,4-dihydro-6-fluoro-4-oxo-1,8-naphthyridine-3-carboxylic acid]
combination of anti-bacterial, toxicity, and water-solubility properties [1]: highly advantageous combination of the above mentioned properties
